# Source: US9540314B2, “N-cycloalkyl-N-[(cycloalkenylphenyl)methylene]-(thio) carboxamide derivatives” (BAYER INTELLECTUAL PROPERTY GMBH, priority 2012, dated 2017)
# Marks after values point to notes of the source that are not given here.
# What was measured:
# [1] = log P by HPLC on a reversed-phase column (C 18), EEC Directive 79/831 Annex V.A8; format: physicochemical; settings: HPLC C 18, 40° C., 0.1% aqueous formic acid and acetonitrile; for logP: Table 1, several values = mixture of 2 or more isomers; for chromatographic logP: reversed-phase HPLC column (C 18), Table 2, compounds of formula (IIa)
# Protocol: In table 1, the log P values were determined in accordance with EEC Directive 79/831 Annex V.A8 by HPLC (High Performance Liquid Chromatography) on a reversed-phase column (C 18), using the method described below:
# Temperature: 40° C.; Mobile phases: 0.1% aqueous formic acid and acetonitrile; linear gradient from 10% acetonitrile to 90% acetonitrile.
# Calibration was carried out using unbranched alkan-2-ones (comprising 3 to 16 carbon atoms) with known log P values (determination of the log P values by the retention times using linear interpolation between two successive alkanones). lambda-max-values were determined using UV-spectra from 200 nm to 400 nm and the peak values of the chromatographic signals.
# Puccinia recondita = test: In vivo preventive test on Puccinia recondita (brown rust on wheat); settings: 500 ppm of active ingredient; wheat plants, preventive spray; grading 12 days after contamination
# Protocol: (§1) The active ingredients tested are prepared by homogenization in a mixture of acetone/tween/DMSO, and then diluted with water to obtain the desired active material concentration.
# Wheat plants (“Scipion” variety), sown in starter cups on a 50/50 peat soil pozzolana substrate and grown at 22° C., are treated at the 1 leaf stage (10 cm height) by spraying with the active ingredient prepared as described above. Plants, used as controls, are treated with the mixture of acetone/tween/DMSO/water not containing the active material.
# (§2) After 24 hours, the plants are contaminated by spraying the leaves with an aqueous suspension of Puccinia recondita spores (100 000 spores per mL). The spores are collected from an infected plant and are suspended in water containing 2.5 mL/L of Tween 80 at 10%. The contaminated wheat plants are incubated for 24 hours at 20° C. and at 100% relative humidity, and then for 10 days at 20° C. and at 70-80% relative humidity.
# Grading (% of efficacy) is carried out 12 days after the contamination, in comparison with the control plants.
# Under these conditions, good (at least 70%) to total protection is observed at a dose of 500 ppm of active ingredient with the following compounds from table I: […]
# Uromyces appendiculatus = test: In vivo preventive test on Uromyces appendiculatus (bean rust); settings: bean plants; for protection: Table K2 comparison with saturated analogues, 500 ppm, preventive, 11 days after contamination
# Protocol: as §1
# as §2, with “of Uromyces appendiculatus” for “of Puccinia recondita”, “spores (150” for “spores (100”, “from” for “from an”, “infected plants” for “infected plant”, “contaminated bean” for “contaminated wheat”
# Grading (% of efficacy) is carried out 11 days after the contamination, in comparison with the control plants.
# Pyrenophora teres = test: In vivo preventive test on Pyrenophora teres (barley); settings: Table H2; 100 ppm, barley plants, preventive, grading 14 days after contamination
# Protocol: as §1
# Barley plants (“Plaisant” variety), sown in starter cups on a 50/50 peat soil pozzolana substrate and grown at 22° C., are treated at the 1 leaf stage (10 cm height) by spraying with the active ingredient prepared as described above. Plants, used as controls, are treated with the mixture of acetone/tween/DMSO/water not containing the active material.
# After 24 hours, the plants are contaminated by spraying the leaves with an aqueous suspension of Pyrenophora teres spores (12 000 spores per mL). The spores are collected from a 12-day-old culture.
# The contaminated barley plants are incubated for 48 hours at 20° C. and at 100% relative humidity, and then for 12 days at 20° C. at 70-80% relative humidity.
# Grading (% of efficacy) is carried out 14 days after the contamination, in comparison with the control plants.
# Under these conditions, good (at least 70%) to total protection is observed at a dose of 500 ppm of active ingredient with the following compounds from table H1: […]
# [2] = dose 100 ppm, comparison with saturated analogues (table K2)
# [3] = dose 500 ppm, comparison with saturated analogues (table K2)
# [4] = 500 ppm of active ingredient, preventive spray, grading 11 days after contamination (table K1)
compound,measurement,setting,value
CC1CC=C(c2ccc(F)cc2CN(C(=O)c2c(C(F)F)nn(C)c2Cl)C2CC2)CC1 (racemic) [I.47],logP,[1],5.14
same,Efficacy,Puccinia recondita,81%
CC1CC=C(c2ccc(F)cc2CN(C(=S)c2c(C(F)F)nn(C)c2Cl)C2CC2)CC1 (racemic) [I.48],logP,[1],5.77
"Cn1nc(C(F)F)c(C(=O)N(Cc2ccccc2C2CCCC2)C2CC2)c1F [CMP4, N-(2-cyclopentylbenzyl)-N-cyclopropyl-3-(difluoromethyl)-5-fluoro-1-methyl-1H-pyrazole-4-carboxamide, reference compound]",protection,Uromyces appendiculatus,poor (less than 20%) protection or plant damages
same,Efficacy,Uromyces appendiculatus; [2],100%
"Cn1cc(C(=O)N(Cc2ccccc2C2CCCCC2)C2CC2)c(C(F)F)n1 [CMP5, N-(2-cyclohexylbenzyl)-N-cyclopropyl-3-(difluoromethyl)-1-methyl-1H-pyrazole-4-carboxamide, reference compound]",protection,Uromyces appendiculatus,poor (less than 20%) protection or plant damages
same,Efficacy,Uromyces appendiculatus; [2],0%
"Cn1nc(C(F)F)c(C(=O)N(Cc2ccccc2C2CCCCC2)C2CC2)c1F [CMP6, N-(2-cyclohexylbenzyl)-N-cyclopropyl-3-(difluoromethyl)-5-fluoro-1-methyl-1H-pyrazole-4-carboxamide, reference compound]",protection,Uromyces appendiculatus,poor (less than 20%) protection or plant damages
same,Efficacy,Uromyces appendiculatus; [2],38^(d) %
"Cn1nc(C(F)F)c(C(=O)N(Cc2ccccc2C2CCCCC2)C2CC2)c1Cl [CMP7, 5-chloro-N-(2-cyclohexylbenzyl)-N-cyclopropyl-3-(difluoromethyl)-1-methyl-1H-pyrazole-4-carboxamide, reference compound]",protection,Uromyces appendiculatus,poor (less than 20%) protection or plant damages
same,Efficacy,Uromyces appendiculatus; [2],0%
same,Efficacy,Uromyces appendiculatus; [3],13%
Cn1cc(C(=O)N(Cc2ccccc2C2=CCCC2)C2CC2)c(C(F)F)c1 [I.5],logP,[1],4.13
O=C(c1ccsc1I)N(Cc1ccccc1C1=CCCC1)C1CC1 [I.6],logP,[1],4.85
same,Efficacy,Uromyces appendiculatus; [4],88%
Cn1nc(C(F)F)c(C(=O)N(Cc2cc(C3=CCCC3)ccc2Cl)C2CC2)c1Cl [I.8],logP,[1],4.82
same,Efficacy,Pyrenophora teres,71%
Cn1nc(C(F)F)c(C(=O)N(Cc2cc(C3=CCCC3)ccc2Cl)C2CC2)c1F [I.9],logP,[1],4.59
same,Efficacy,Pyrenophora teres,79%
Cn1cc(C(=O)N(Cc2cc(C3=CCCC3)ccc2Cl)C2CC2)c(C(F)F)n1 [I.10],logP,[1],4.14
Cn1cc(C(=O)N(Cc2cc(C3=CCCC3)ccc2Cl)C2CC2)c(C(F)F)c1 [I.11],logP,[1],4.63
O=C(c1ccsc1I)N(Cc1cc(C2=CCCC2)ccc1Cl)C1CC1 [I.12],logP,[1],5.51
Cn1nc(C(F)F)c(C(=O)N(Cc2cc(Cl)ccc2C2=CCCC2)C2CC2)c1F [I.20],logP,[1],4.54
same,Efficacy,Pyrenophora teres,97%
O=C(c1ccsc1I)N(Cc1cc(Cl)ccc1C1=CCCC1)C1CC1 [I.21],logP,[1],5.36
Cn1cc(C(=O)N(Cc2cc(Cl)ccc2C2=CCCC2)C2CC2)c(C(F)F)n1 [I.22],logP,[1],4.06
same,Efficacy,Pyrenophora teres,71%
Cn1nc(C(F)F)c(C(=O)N(Cc2cc(Cl)ccc2C2=CCCC2)C2CC2)c1Cl [I.23],logP,[1],4.74
Cn1cc(C(=O)N(Cc2cc(Cl)ccc2C2=CCCC2)C2CC2)c(C(F)F)c1 [I.24],logP,[1],4.58
Cn1nc(C(F)F)c(C(=O)N(Cc2ccccc2C2=CCCCC2)C2CC2)c1Cl [I.29],logP,[1],4.66
same,Efficacy,Puccinia recondita,81%
same,Efficacy,Uromyces appendiculatus; [4],84%
same,Efficacy,Uromyces appendiculatus; [2],35%
same,Efficacy,Uromyces appendiculatus; [3],84%
Cn1nc(C(F)F)c(C(=O)N(Cc2cc(C3=CCCCC3)ccc2Cl)C2CC2)c1F [I.33],logP,[1],4.92
same,Efficacy,Pyrenophora teres,86%
Cn1nc(C(F)F)c(C(=O)N(Cc2cc(C3=CCCCC3)ccc2Cl)C2CC2)c1Cl [I.34],logP,[1],5.14
same,Efficacy,Pyrenophora teres,79%
O=C(c1ccsc1I)N(Cc1cc(C2=CCCCC2)ccc1Cl)C1CC1 [I.35],logP,[1],5.87
Cn1cc(C(=O)N(Cc2cc(C3=CCCCC3)ccc2Cl)C2CC2)c(C(F)F)c1 [I.36],logP,[1],4.93
Cn1cc(C(=O)N(Cc2cc(C3=CCCCC3)ccc2Cl)C2CC2)c(C(F)F)n1 [I.37],logP,[1],4.46
Cn1nc(C(F)F)c(C(=O)N(Cc2cc(Cl)ccc2C2=CCCCC2)C2CC2)c1Cl [I.38],logP,[1],5.11
Cn1cc(C(=O)N(Cc2cc(Cl)ccc2C2=CCCCC2)C2CC2)c(C(F)F)n1 [I.39],logP,[1],4.44
Cn1cc(C(=O)N(Cc2cc(Cl)ccc2C2=CCCCC2)C2CC2)c(C(F)F)c1 [I.40],logP,[1],4.93
Cn1nc(C(F)F)c(C(=O)N(Cc2cc(Cl)ccc2C2=CCCCC2)C2CC2)c1F [I.41],logP,[1],4.88
O=C(c1ccsc1I)N(Cc1cc(Cl)ccc1C1=CCCCC1)C1CC1 [I.42],logP,[1],5.78
O=C(c1ccsc1I)N(Cc1ccccc1C1=CCCCCC1)C1CC1 [I.52],logP,[1],5.78
same,Efficacy,Uromyces appendiculatus; [4],75%
Cn1nc(C(F)F)c(C(=O)N(Cc2cc(Cl)ccc2C2=CCCCCC2)C2CC2)c1F [I.54],logP,[1],5.31
Cn1cc(C(=O)N(Cc2cc(Cl)ccc2C2=CCCCCC2)C2CC2)c(C(F)F)c1 [I.55],logP,[1],5.34
Cn1nc(C(F)F)c(C(=O)N(Cc2cc(Cl)ccc2C2=CCCCCC2)C2CC2)c1Cl [I.56],logP,[1],5.54
Cn1cc(C(=O)N(Cc2cc(Cl)ccc2C2=CCCCCC2)C2CC2)c(C(F)F)n1 [I.57],logP,[1],4.87
same,Efficacy,Pyrenophora teres,79%
O=C(c1ccsc1I)N(Cc1cc(Cl)ccc1C1=CCCCCC1)C1CC1 [I.58],logP,[1],6.27
"CC(NC1CC1)c1ccccc1C1=CCCC1 (stereo not shown) [IIa.1, N-{1-[2-(cyclopent-1-en-1-yl)phenyl]ethyl}cyclopropanamine]",chromatographic logP,[1],1.72
"C1=C(c2ccccc2CNC2CC2)CCC1 [IIa.2, N-[2-(cyclopent-1-en-1-yl)benzyl]cyclopropanamine]",chromatographic logP,[1],1.19
"Clc1ccc(C2=CCCC2)c(CNC2CC2)c1 [IIa.3, N-[5-chloro-2-(cyclopent-1-en-1-yl)benzyl]cyclopropanamine]",chromatographic logP,[1],1.28
"CC(NC1CC1)c1cc(F)ccc1C1=CCCC1 (stereo not shown) [IIa.4, N-{1-[2-(cyclopent-1-en-1-yl)-5-fluorophenyl]ethyl}cyclopropanamine]",chromatographic logP,[1],1.56
"Clc1ccc(C2=CCCC2)cc1CNC1CC1 [IIa.5, N-[2-chloro-5-(cyclopent-1-en-1-yl)benzyl]cyclopropanamine]",chromatographic logP,[1],1.39
"C1=C(c2ccccc2CNC2CC2)CCCC1 [IIa.6, N-[2-(cyclohex-1-en-1-yl)benzyl]cyclopropanamine]",chromatographic logP,[1],1.37
"Clc1ccc(C2=CCCCC2)c(CNC2CC2)c1 [IIa.7, N-[5-chloro-2-(cyclohex-1-en-1-yl)benzyl]cyclopropanamine]",chromatographic logP,[1],1.45
"Clc1ccc(C2=CCCCC2)cc1CNC1CC1 [IIa.8, N-[2-chloro-5-(cyclohex-1-en-1-yl)benzyl]cyclopropanamine]",chromatographic logP,[1],1.45
"C1=C(c2ccccc2CNC2CC2)CCCCC1 [IIa.9, N-[2-(cyclohept-1-en-1-yl)benzyl]cyclopropanamine]",chromatographic logP,[1],1.45
"Clc1ccc(C2=CCCCCC2)c(CNC2CC2)c1 [IIa.10, N-[5-chloro-2-(cyclohept-1-en-1-yl)benzyl]cyclopropanamine]",chromatographic logP,[1],1.71
